Data reported in PubChem BioAssay (NCI).
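Cultured in 96-well plates, cells were exposed to test compound for 48 hours across five concentrations. The concentration for full growth arrest is given as TGI.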

Tested on: 786-0 renal
Assay: NCI tumour cell line growth inhibition, 48 h

Q: With `O=c1cc(O)cc2n1CCC2` as the compound, how does the TGI read?
A: > 100 µM

Q: For `COC(=O)C1C(=O)O[C@@H](c2ccc3c(c2)OCO3)C1C(=O)OC` (mixture of isomers), which TGI is on record?
A: > 100 µM

Q: `OCc1cc2c(cn1)[nH]c1ccc(NCc3ccccc3)cc12` was tested. Which TGI did it give?
A: 58.4 µM

Q: With `O=[N+]([O-])c1ccccc1C1SCc2nc3ccccc3n21` (configuration not stated) as the compound, how does the TGI read?
A: > 100 µM

Tested on: A498 renal
Assay: NCI tumour cell line growth inhibition, 48 h

Q: Which TGI does the source give for `O=c1cc(O)cc2n1CCC2` here?
A: > 100 µM

Q: Which TGI does the source give for `COC(=O)C1C(=O)O[C@@H](c2ccc3c(c2)OCO3)C1C(=O)OC` (mixture of isomers) here?
A: > 100 µM

Q: How did the TGI turn out when `OCc1cc2c(cn1)[nH]c1ccc(NCc3ccccc3)cc12` was run?
A: 71.7 µM

Q: `O=[N+]([O-])c1ccccc1C1SCc2nc3ccccc3n21` (configuration not stated) was tested. Which TGI did it give?
A: > 100 µM

Tested on: A549 NSCLC
Assay: NCI tumour cell line growth inhibition, 48 h

Q: With `O=c1cc(O)cc2n1CCC2` as the compound, how does the TGI read?
A: > 100 µM

Q: For `COC(=O)C1C(=O)O[C@@H](c2ccc3c(c2)OCO3)C1C(=O)OC` (mixture of isomers), which TGI is on record?
A: > 100 µM

Q: Which TGI does the source give for `OCc1cc2c(cn1)[nH]c1ccc(NCc3ccccc3)cc12` here?
A: > 100 µM

Q: Which TGI does the source give for `O=[N+]([O-])c1ccccc1C1SCc2nc3ccccc3n21` (configuration not stated) here?
A: > 100 µM

Tested on: ACHN renal
Assay: NCI tumour cell line growth inhibition, 48 h

Q: For `O=c1cc(O)cc2n1CCC2`, which TGI is on record?
A: > 100 µM

Q: `COC(=O)C1C(=O)O[C@@H](c2ccc3c(c2)OCO3)C1C(=O)OC` (mixture of isomers) was tested. Which TGI did it give?
A: > 100 µM

Q: With `OCc1cc2c(cn1)[nH]c1ccc(NCc3ccccc3)cc12` as the compound, how does the TGI read?
A: > 100 µM

Q: `O=[N+]([O-])c1ccccc1C1SCc2nc3ccccc3n21` (configuration not stated) was tested. Which TGI did it give?
A: > 100 µM

Tested on: CAKI-1 renal
Assay: NCI tumour cell line growth inhibition, 48 h

Q: For `O=c1cc(O)cc2n1CCC2`, which TGI is on record?
A: > 100 µM

Q: How did the TGI turn out when `COC(=O)C1C(=O)O[C@@H](c2ccc3c(c2)OCO3)C1C(=O)OC` (mixture of isomers) was run?
A: > 100 µM

Q: `OCc1cc2c(cn1)[nH]c1ccc(NCc3ccccc3)cc12` was tested. Which TGI did it give?
A: > 100 µM

Q: With `O=[N+]([O-])c1ccccc1C1SCc2nc3ccccc3n21` (configuration not stated) as the compound, how does the TGI read?
A: > 100 µM

Tested on: CCRF-CEM leukemia
Assay: NCI tumour cell line growth inhibition, 48 h

Q: How did the TGI turn out when `O=c1cc(O)cc2n1CCC2` was run?
A: > 100 µM

Q: Which TGI does the source give for `COC(=O)C1C(=O)O[C@@H](c2ccc3c(c2)OCO3)C1C(=O)OC` (mixture of isomers) here?
A: > 100 µM

Q: For `OCc1cc2c(cn1)[nH]c1ccc(NCc3ccccc3)cc12`, which TGI is on record?
A: 64.7 µM

Q: Which TGI does the source give for `O=[N+]([O-])c1ccccc1C1SCc2nc3ccccc3n21` (configuration not stated) here?
A: > 100 µM

Tested on: COLO 205 colon
Assay: NCI tumour cell line growth inhibition, 48 h

Q: How did the TGI turn out when `O=c1cc(O)cc2n1CCC2` was run?
A: > 100 µM

Q: `COC(=O)C1C(=O)O[C@@H](c2ccc3c(c2)OCO3)C1C(=O)OC` (mixture of isomers) was tested. Which TGI did it give?
A: > 100 µM

Q: For `OCc1cc2c(cn1)[nH]c1ccc(NCc3ccccc3)cc12`, which TGI is on record?
A: 37 µM

Tested on: DLD-1 colon
Assay: NCI tumour cell line growth inhibition, 48 h

Q: Which TGI does the source give for `O=c1cc(O)cc2n1CCC2` here?
A: > 100 µM

Q: Which TGI does the source give for `COC(=O)C1C(=O)O[C@@H](c2ccc3c(c2)OCO3)C1C(=O)OC` (mixture of isomers) here?
A: > 100 µM

Q: `OCc1cc2c(cn1)[nH]c1ccc(NCc3ccccc3)cc12` was tested. Which TGI did it give?
A: > 100 µM

Q: `O=[N+]([O-])c1ccccc1C1SCc2nc3ccccc3n21` (configuration not stated) was tested. Which TGI did it give?
A: > 100 µM

Tested on: DMS 114 small cell lung
Assay: NCI tumour cell line growth inhibition, 48 h

Q: Which TGI does the source give for `O=c1cc(O)cc2n1CCC2` here?
A: > 100 µM

Q: How did the TGI turn out when `COC(=O)C1C(=O)O[C@@H](c2ccc3c(c2)OCO3)C1C(=O)OC` (mixture of isomers) was run?
A: > 100 µM

Q: How did the TGI turn out when `OCc1cc2c(cn1)[nH]c1ccc(NCc3ccccc3)cc12` was run?
A: 51.1 µM

Q: How did the TGI turn out when `O=[N+]([O-])c1ccccc1C1SCc2nc3ccccc3n21` (configuration not stated) was run?
A: > 100 µM

Tested on: DMS 273 small cell lung
Assay: NCI tumour cell line growth inhibition, 48 h

Q: `O=c1cc(O)cc2n1CCC2` was tested. Which TGI did it give?
A: > 100 µM

Q: How did the TGI turn out when `COC(=O)C1C(=O)O[C@@H](c2ccc3c(c2)OCO3)C1C(=O)OC` (mixture of isomers) was run?
A: > 100 µM

Q: With `OCc1cc2c(cn1)[nH]c1ccc(NCc3ccccc3)cc12` as the compound, how does the TGI read?
A: 48 µM

Q: How did the TGI turn out when `O=[N+]([O-])c1ccccc1C1SCc2nc3ccccc3n21` (configuration not stated) was run?
A: > 100 µM

Tested on: EKVX NSCLC
Assay: NCI tumour cell line growth inhibition, 48 h

Q: For `O=c1cc(O)cc2n1CCC2`, which TGI is on record?
A: > 100 µM

Q: For `COC(=O)C1C(=O)O[C@@H](c2ccc3c(c2)OCO3)C1C(=O)OC` (mixture of isomers), which TGI is on record?
A: > 100 µM

Q: Which TGI does the source give for `OCc1cc2c(cn1)[nH]c1ccc(NCc3ccccc3)cc12` here?
A: > 100 µM

Q: For `O=[N+]([O-])c1ccccc1C1SCc2nc3ccccc3n21` (configuration not stated), which TGI is on record?
A: > 100 µM

Tested on: HCC-2998 colon
Assay: NCI tumour cell line growth inhibition, 48 h

Q: `O=c1cc(O)cc2n1CCC2` was tested. Which TGI did it give?
A: > 100 µM

Q: `COC(=O)C1C(=O)O[C@@H](c2ccc3c(c2)OCO3)C1C(=O)OC` (mixture of isomers) was tested. Which TGI did it give?
A: > 100 µM

Q: `OCc1cc2c(cn1)[nH]c1ccc(NCc3ccccc3)cc12` was tested. Which TGI did it give?
A: 58.9 µM

Tested on: HCT-116 colon
Assay: NCI tumour cell line growth inhibition, 48 h

Q: Which TGI does the source give for `O=c1cc(O)cc2n1CCC2` here?
A: > 100 µM

Q: How did the TGI turn out when `COC(=O)C1C(=O)O[C@@H](c2ccc3c(c2)OCO3)C1C(=O)OC` (mixture of isomers) was run?
A: > 100 µM

Q: Which TGI does the source give for `OCc1cc2c(cn1)[nH]c1ccc(NCc3ccccc3)cc12` here?
A: 38.4 µM

Tested on: HCT-15 colon
Assay: NCI tumour cell line growth inhibition, 48 h

Q: With `O=c1cc(O)cc2n1CCC2` as the compound, how does the TGI read?
A: > 100 µM

Q: How did the TGI turn out when `COC(=O)C1C(=O)O[C@@H](c2ccc3c(c2)OCO3)C1C(=O)OC` (mixture of isomers) was run?
A: > 100 µM

Q: With `OCc1cc2c(cn1)[nH]c1ccc(NCc3ccccc3)cc12` as the compound, how does the TGI read?
A: > 100 µM
